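Growth conditions: 96-well plates. Treatment: test compound, 48 hours, 5 concentrations. Analysis: linear interpolation between bracketing concentrations; unreached endpoints set to highest concentration. The concentration for 50% growth inhibition is given as GI50.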 Calls of active or inactive are those of the source. No stated cut-off is given here; in the data, active = GI50 up to about 1.1 µM and inactive = higher.
Columns and labels:
Test in all cases: NCI anticancer screen, dose series, 48 h
786-0 = tested on: 786-0
A549 = tested on: A549
CAKI-1 = tested on: CAKI-1
CCRF-CEM = tested on: CCRF-CEM
COLO 205 = tested on: COLO 205
DU-145 = tested on: DU-145
EKVX = tested on: EKVX
HCC 2998 = tested on: HCC 2998
HCT-15 = tested on: HCT-15
HOP-62 = tested on: HOP-62
HT-29 = tested on: HT-29
IGROV-1 = tested on: IGROV-1
K562 = tested on: K562
KM12 = tested on: KM12
LOX IMVI = tested on: LOX IMVI
M14 = tested on: M14
MCF7 = tested on: MCF7
MDA-MB-231 = tested on: MDA-MB-231
MDA-N = tested on: MDA-N
MOLT-4 = tested on: MOLT-4
Malme-3M = tested on: Malme-3M
NCI-H23 = tested on: NCI-H23
OVCAR-8 = tested on: OVCAR-8
PC-3 = tested on: PC-3
RPMI-8226 = tested on: RPMI-8226
RXF 393 = tested on: RXF 393
SF-268 = tested on: SF-268
SF-295 = tested on: SF-295
SK-MEL-28 = tested on: SK-MEL-28
SK-MEL-5 = tested on: SK-MEL-5
SK-OV-3 = tested on: SK-OV-3
SN12C = tested on: SN12C
SNB-75 = tested on: SNB-75
SR = tested on: SR
SW-620 = tested on: SW-620
T47D = tested on: T47D
TK-10 = tested on: TK-10
UACC-257 = tested on: UACC-257
UACC-62 = tested on: UACC-62

Cc1c(CCCl)c(N=P(c2ccccc2)(c2ccccc2)c2ccccc2)n2c(nc3ccccc32)c1C#N
GI50 (786-0): > 10 µM (inactive) | GI50 (A549): > 10 µM (inactive) | GI50 (CAKI-1): > 10 µM (inactive) | GI50 (CCRF-CEM): 4.67 µM (inactive) | GI50 (COLO 205): > 10 µM (inactive) | GI50 (DU-145): > 10 µM (inactive) | GI50 (EKVX): > 10 µM (inactive) | GI50 (HCC 2998): > 10 µM (inactive) | GI50 (HCT-15): > 10 µM | GI50 (HOP-62): > 10 µM (inactive) | GI50 (HT-29): 5.79 µM (inactive) | GI50 (IGROV-1): > 10 µM (inactive) | GI50 (K562): > 10 µM (inactive) | GI50 (KM12): > 10 µM (inactive) | GI50 (LOX IMVI): > 10 µM (inactive) | GI50 (M14): > 10 µM (inactive) | GI50 (MCF7): > 10 µM (inactive) | GI50 (MDA-MB-231): > 10 µM (inactive) | GI50 (MDA-N): > 10 µM (inactive) | GI50 (MOLT-4): > 10 µM (inactive) | GI50 (Malme-3M): > 10 µM (inactive) | GI50 (NCI-H23): > 10 µM (inactive) | GI50 (OVCAR-8): > 10 µM (inactive) | GI50 (PC-3): > 10 µM (inactive) | GI50 (RPMI-8226): > 10 µM (inactive) | GI50 (RXF 393): > 10 µM (inactive) | GI50 (SF-268): > 10 µM (inactive) | GI50 (SF-295): > 10 µM (inactive) | GI50 (SK-MEL-28): > 10 µM (inactive) | GI50 (SK-MEL-5): > 10 µM (inactive) | GI50 (SK-OV-3): > 10 µM (inactive) | GI50 (SN12C): > 10 µM (inactive) | GI50 (SNB-75): > 10 µM (inactive) | GI50 (SR): > 10 µM (inactive) | GI50 (SW-620): > 10 µM (inactive) | GI50 (T47D): > 10 µM (inactive) | GI50 (TK-10): > 10 µM (inactive) | GI50 (UACC-257): > 10 µM (inactive) | GI50 (UACC-62): > 10 µM (inactive)
